The values that follow are results of earlier work, collected in US20090023644A1 (priority 2004, published 2009).

Where two headings read alike, the source gives them in different places. Some results are limits rather than exact numbers.

The conditions of series [1]: 600 ng/min.
The conditions of series [2]: 8 ng/kg/min IV infusion for 8 hours.
Setting [3] is: IV infusion 10 or 20 minutes at 0.8, 3.2 or 16 ng/kg/min.

Calcitonin gene-related peptide [CGRP]: under setting [3], the cardiac output entry is recorded as “increase”, the systemic vascular resistance result is “decreased” and the tachycardia entry was “no tachycardia observed”. Besides, the “type of vasodilator behaviour” value (at lower doses) was “pure arteriolar vasodilator”. For the same substance, the “type of vasodilator behaviour” value (at the higher dose) was “mixed vasodilator”. For the same substance, the “discontinuation of infusion due to nausea, diarrhea, and/or severe facial flushing” value in series [1] (48-hour continuous IV infusion) was “discontinued after 28 hours in 3 out of the 6 patients”. In series [1] (pulsed therapy), the “hemodynamic functions such as left ventricular function” value is “improve”; the unfavorable side effects result is “tachycardia and neurohumoral response were also observed”. For the same substance, in series [1] (pulsed therapy (2-8 hour infusions for two consecutive days)), the tolerability result is recorded as “well tolerated”. In series [2], the cardiac output result is “increased”; the “pulmonary and systemic arterial pressure” value is recorded as “decreased”; the “time to loss of hemodynamic effects after stopping CGRP infusion” value was not above 30 min; the vascular resistance entry was “decreased”. In addition, in series [2] (during treatment), the glomerular filtration result was “increased” and the renal blood flow entry was “increased”.
